Measurements taken from patent publication US9833497B2, “Human originated EGF domain proteins and use of the same” (CHENGDU SOURCEBIO LIMITED-LIABILITY COMPANY, priority 2013, dated 2017).

Assays:
Type in all cases: cell-based
Klebsiella pneumonia = assay: MIC against Gram-negative bacteria: Klebsiella pneumonia; conditions: for MIC / MIC (μg/mL) K. pneumonia: K. pneumonia
Summary of the method: (§1)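 Growth inhibition by human EGF domain proteins was scored in LB liquid culture seeded at 5×10^5 CFU/mL. Protein was applied as a two-fold dilution series in triplicate, with shaking incubation at 37° C; MIC is the lowest concentration giving no growth.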

Aeromonas hydrophila = assay: MIC against Gram-negative bacteria: Aeromonas hydrophila; conditions: for MIC / MIC (μg/mL) A. hydrophila: A. hydrophila
Summary of the method: as §1

Moraxella catarrhalis = assay: MIC against Gram-negative bacteria: Moraxella catarrhalis; conditions: for MIC / MIC (μg/mL) M. catarrhalis: M. catarrhalis
Summary of the method: as §1

E. coli BL21 = assay: MIC against Gram-negative bacteria: E. coli BL21
Summary of the method: as §1

Pseudomonas aeruginosa = assay: MIC against Gram-negative bacteria: Pseudomonas aeruginosa; conditions: for MIC / MIC (μg/mL) P. aeruginosa: P. aeruginosa
Summary of the method: as §1

E. coli DH5α = assay: Antibacterial activity: MIC and growth curve against E. coli DH5α in 96-well plate; conditions: minimal inhibitory concentration against E. coli DH5α; 96-well plate, 5×10^5 CFU/mL, 37° C., judged after 8 h
Summary of the method: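 Log-phase bacteria (OD600 ~0.5) resuspended in LB at 5×10^5 CFU/mL, exposed to recombinant protein at 50, 25, 12.5 μg/mL final in triplicate, 37 °C shaking at 175 rpm. OD600 read every 30 min; MIC is lowest concentration showing no growth.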

Citrobacter diversus = assay: MIC against Gram-negative bacteria: Citrobacter diversus; conditions: for MIC / MIC (μg/mL) C. diversus: C. diversus
Summary of the method: as §1

Serratia marcescens = assay: MIC against Gram-negative bacteria: Serratia marcescens; conditions: for MIC / MIC (μg/mL) S. marcescens: S. marcescens
Summary of the method: as §1

Proteus vulgaris = assay: MIC against Gram-negative bacteria: Proteus vulgaris; conditions: for MIC / MIC (μg/mL) P. vulgaris: P. vulgaris
Summary of the method: as §1

Proteus mirabilis = assay: MIC against Gram-negative bacteria: Proteus mirabilis; conditions: for MIC / MIC (μg/mL) P. mirabilis: P. mirabilis
Summary of the method: as §1

Enterobacter cloacae = assay: MIC against Gram-negative bacteria: Enterobacter cloacae; conditions: for MIC / MIC (μg/mL) E. cloacae: E. cloacae
Summary of the method: as §1

[1] = E. coli BL21, 10 h cultivation at 37° C.
[2] = 10 h cultivation at 37° C., 5×10^5 CFU/mL, two-fold serial dilution
[3] = 10 h cultivation at 37° C., 5×10^5 CFU/mL
[4] = E. coli BL21, 10 h cultivation at 37° C., 5×10^5 CFU/mL
[5] = 96-well plate, 5×10^5 CFU/mL, 37° C., 10 h

PRT900 (VLAPCAPSPCRNGGECRQSEDYESFSCVCPTGWQGQTCE; listed as Homo sapiens)
25 µg/mL: MIC (Moraxella catarrhalis; 10 h cultivation at 37° C.) | MIC (E. coli BL21; [1]) | MIC (Proteus vulgaris; 10 h cultivation at 37° C.)
12.5 µg/mL: MIC (Klebsiella pneumonia; 10 h cultivation at 37° C.) | MIC (Aeromonas hydrophila; 10 h cultivation at 37° C.) | MIC (Pseudomonas aeruginosa; 10 h cultivation at 37° C.) | MIC (E. coli DH5α) | MIC (Citrobacter diversus; 10 h cultivation at 37° C.) | MIC (Proteus mirabilis; 10 h cultivation at 37° C.) | MIC (Enterobacter cloacae; 10 h cultivation at 37° C.)
50 µg/mL: MIC (Serratia marcescens; 10 h cultivation at 37° C.)

PRT982 (VLSPCESQPCQHGGQCRPSPGPGGGLTFTCHCAQPFWGPRCE; listed as Homo sapiens)
12.5 µg/mL: MIC (Moraxella catarrhalis; 10 h cultivation at 37° C.) | MIC (Pseudomonas aeruginosa; 10 h cultivation at 37° C.) | MIC (Proteus vulgaris; 10 h cultivation at 37° C.) | MIC (Enterobacter cloacae; 10 h cultivation at 37° C.)
50 µg/mL: MIC (Klebsiella pneumonia; 10 h cultivation at 37° C.) | MIC (E. coli DH5α) | MIC (Citrobacter diversus; 10 h cultivation at 37° C.) | MIC (Serratia marcescens; 10 h cultivation at 37° C.) | MIC (Proteus mirabilis; 10 h cultivation at 37° C.)
25 µg/mL: MIC (Aeromonas hydrophila; 10 h cultivation at 37° C.) | MIC (E. coli BL21; [1])

PRT1108 (DLNECNSNPCQSNGECVELSSEKQYGRITGLPSSFSYHEASGYVCICQPGFTGIHCE; listed as Homo sapiens)
25 µg/mL: MIC A. hydrophila (Aeromonas hydrophila; [2]) | MIC M. catarrhalis (Moraxella catarrhalis; [2]) | MIC P. vulgaris (Proteus vulgaris; [2]) | MIC E. cloacae (Enterobacter cloacae; [2])
50 µg/mL: MIC (E. coli DH5α)
12.5 µg/mL: MIC K. pneumonia (Klebsiella pneumonia; [2]) | MIC E. coli BL21 (E. coli BL21; [2]) | MIC P. aeruginosa (Pseudomonas aeruginosa; [2]) | MIC C. diversus (Citrobacter diversus; [2]) | MIC S. marcescens (Serratia marcescens; [2]) | MIC P. mirabilis (Proteus mirabilis; [2])

PRT921 (NIDDCASAACFHGATCHDRVASFYCECPHGRTGLLCH; listed as Homo sapiens)
25 µg/mL: MIC (Aeromonas hydrophila; 10 h cultivation at 37° C.) | MIC (Moraxella catarrhalis; 10 h cultivation at 37° C.) | MIC (Pseudomonas aeruginosa; 10 h cultivation at 37° C.) | MIC (Proteus vulgaris; 10 h cultivation at 37° C.)
12.5 µg/mL: MIC (Klebsiella pneumonia; 10 h cultivation at 37° C.) | MIC (E. coli BL21; [1]) | MIC (E. coli DH5α) | MIC (Citrobacter diversus; 10 h cultivation at 37° C.) | MIC (Serratia marcescens; 10 h cultivation at 37° C.) | MIC (Proteus mirabilis; 10 h cultivation at 37° C.) | MIC (Enterobacter cloacae; 10 h cultivation at 37° C.)

PRT1311 (LLDPCSKNNGGCSPYATCKSTGDGQRTCTCDTAHTVGDGLTCR; listed as Homo sapiens)
50 µg/mL: MIC (E. coli DH5α) | MIC against C. diversus (Citrobacter diversus; Citrobacter diversus, 96-well plate, 5×10^5 CFU/mL, 37° C., 10 h) | MIC against E. cloacae (Enterobacter cloacae; Enterobacter cloacae, 96-well plate, 5×10^5 CFU/mL, 37° C., 10 h)
12.5 µg/mL: MIC against A. hydrophila (Aeromonas hydrophila; Aeromonas hydrophila, 96-well plate, 5×10^5 CFU/mL, 37° C., 10 h) | MIC against P. aeruginosa (Pseudomonas aeruginosa; Pseudomonas aeruginosa, 96-well plate, 5×10^5 CFU/mL, 37° C., 10 h) | MIC against P. mirabilis (Proteus mirabilis; Proteus mirabilis, 96-well plate, 5×10^5 CFU/mL, 37° C., 10 h)
25 µg/mL: MIC against K. pneumonia (Klebsiella pneumonia; Klebsiella pneumonia, 96-well plate, 5×10^5 CFU/mL, 37° C., 10 h) | MIC against M. catarrhalis (Moraxella catarrhalis; Moraxella catarrhalis, 96-well plate, 5×10^5 CFU/mL, 37° C., 10 h) | MIC against E. coli BL21 (E. coli BL21; E. coli BL21, 96-well plate, 5×10^5 CFU/mL, 37° C., 10 h) | MIC against S. marcescens (Serratia marcescens; Serratia marcescens, 96-well plate, 5×10^5 CFU/mL, 37° C., 10 h) | MIC against P. vulgaris (Proteus vulgaris; Proteus vulgaris, 96-well plate, 5×10^5 CFU/mL, 37° C., 10 h)

PRT431 (DIDECRTIPEACRGDMMCVNQNGGYLCIPRTNPVYRGPYSN; listed as Homo sapiens)
50 µg/mL: MIC (Pseudomonas aeruginosa; [3]) | MIC (E. coli DH5α) | MIC (Citrobacter diversus; [3]) | MIC (Proteus mirabilis; [3]) | MIC (Enterobacter cloacae; [3])
25 µg/mL: MIC (Proteus vulgaris; [3])
12.5 µg/mL: MIC (Klebsiella pneumonia; [3]) | MIC (Aeromonas hydrophila; [3]) | MIC (Moraxella catarrhalis; [3]) | MIC (E. coli BL21; [4]) | MIC (Serratia marcescens; [3])

PRT744 (GWNECASSNGHCSHLCLAVPVGGFVCGCPAHYSLNADNRTCS; listed as Homo sapiens)
25 µg/mL: MIC (μg/mL) P. vulgaris (Proteus vulgaris; [3]) | MIC (μg/mL) P. mirabilis (Proteus mirabilis; [3])
12.5 µg/mL: MIC (μg/mL) P. aeruginosa (Pseudomonas aeruginosa; [3]) | MIC (E. coli DH5α) | MIC (μg/mL) C. diversus (Citrobacter diversus; [3]) | MIC (μg/mL) S. marcescens (Serratia marcescens; [3]) | MIC (μg/mL) E. cloacae (Enterobacter cloacae; [3])
50 µg/mL: MIC (μg/mL) K. pneumonia (Klebsiella pneumonia; [3]) | MIC (μg/mL) A. hydrophila (Aeromonas hydrophila; [3]) | MIC (μg/mL) M. catarrhalis (Moraxella catarrhalis; [3]) | MIC (μg/mL) E. coli BL21 (E. coli BL21; [4])

PRT218 (DINECDASNQCAQQCYNILGSFICQCNQGYELSSDRLNCE; listed as Homo sapiens)
25 µg/mL: MIC (μg/mL) C. diversus (Citrobacter diversus; [3]) | MIC (μg/mL) S. marcescens (Serratia marcescens; [3]) | MIC (μg/mL) P. mirabilis (Proteus mirabilis; [3]) | MIC (μg/mL) E. cloacae (Enterobacter cloacae; [3])
12.5 µg/mL: MIC (μg/mL) A. hydrophila (Aeromonas hydrophila; [3])
50 µg/mL: MIC (μg/mL) K. pneumonia (Klebsiella pneumonia; [3]) | MIC (μg/mL) M. catarrhalis (Moraxella catarrhalis; [3]) | MIC (μg/mL) E. coli BL21 (E. coli BL21; [4]) | MIC (μg/mL) P. aeruginosa (Pseudomonas aeruginosa; [3]) | MIC (μg/mL) P. vulgaris (Proteus vulgaris; [3])
100 µg/mL: MIC (E. coli DH5α)

PRT500 (CNCDPVGSLSSVCIKDDLHSDLHNGKQPGQCPCKEGYTGEKCDRCQLGYKDYPTCVS; listed as Homo sapiens)
12.5 µg/mL: MIC against K. pneumonia (Klebsiella pneumonia; [5]) | MIC against M. catarrhalis (Moraxella catarrhalis; [5])
50 µg/mL: MIC against A. hydrophila (Aeromonas hydrophila; [5]) | MIC against E. coli BL21 (E. coli BL21; [5]) | MIC against P. vulgaris (Proteus vulgaris; [5])
25 µg/mL: MIC against P. aeruginosa (Pseudomonas aeruginosa; [5]) | MIC (E. coli DH5α) | MIC against C. diversus (Citrobacter diversus; [5]) | MIC against S. marcescens (Serratia marcescens; [5]) | MIC against P. mirabilis (Proteus mirabilis; [5]) | MIC against E. cloacae (Enterobacter cloacae; [5])

PRT1477 (DIDECSENMCAQLCVNYPGGYTCYCDGKKGFKLAQDQKSCE; listed as Homo sapiens)
25 µg/mL: MIC against C. diversus (Citrobacter diversus; Citrobacter diversus, 5×10^5 CFU/mL, 10 h cultivation at 37° C.) | MIC against P. mirabilis (Proteus mirabilis; Proteus mirabilis, 5×10^5 CFU/mL, 10 h cultivation at 37° C.) | MIC against E. cloacae (Enterobacter cloacae; Enterobacter cloacae, 5×10^5 CFU/mL, 10 h cultivation at 37° C.)
50 µg/mL: MIC against A. hydrophila (Aeromonas hydrophila; Aeromonas hydrophila, 5×10^5 CFU/mL, 10 h cultivation at 37° C.) | MIC against P. aeruginosa (Pseudomonas aeruginosa; Pseudomonas aeruginosa, 5×10^5 CFU/mL, 10 h cultivation at 37° C.) | MIC (E. coli DH5α) | MIC against P. vulgaris (Proteus vulgaris; Proteus vulgaris, 5×10^5 CFU/mL, 10 h cultivation at 37° C.)
12.5 µg/mL: MIC against K. pneumonia (Klebsiella pneumonia; Klebsiella pneumonia, 5×10^5 CFU/mL, 10 h cultivation at 37° C.) | MIC against M. catarrhalis (Moraxella catarrhalis; Moraxella catarrhalis, 5×10^5 CFU/mL, 10 h cultivation at 37° C.) | MIC against E. coli BL21 (E. coli BL21; E. coli BL21, 5×10^5 CFU/mL, 10 h cultivation at 37° C.) | MIC against S. marcescens (Serratia marcescens; Serratia marcescens, 5×10^5 CFU/mL, 10 h cultivation at 37° C.)
